The target of one experiment is HDAC1 (Homo sapiens, UniProt Q13547). Description: in vitro activity-based HDAC assay. In kind it is biochemical. The note with it: human HDAC isoform panel, Table 1.
For a further experiment, the target named is HDAC3 (Homo sapiens, UniProt O15379). Description: in vitro activity-based HDAC assay. Format: biochemical. The note with it: human HDAC isoform panel, Table 1.
Sequence of HDAC3 (O15379 whole entry, canonical isoform): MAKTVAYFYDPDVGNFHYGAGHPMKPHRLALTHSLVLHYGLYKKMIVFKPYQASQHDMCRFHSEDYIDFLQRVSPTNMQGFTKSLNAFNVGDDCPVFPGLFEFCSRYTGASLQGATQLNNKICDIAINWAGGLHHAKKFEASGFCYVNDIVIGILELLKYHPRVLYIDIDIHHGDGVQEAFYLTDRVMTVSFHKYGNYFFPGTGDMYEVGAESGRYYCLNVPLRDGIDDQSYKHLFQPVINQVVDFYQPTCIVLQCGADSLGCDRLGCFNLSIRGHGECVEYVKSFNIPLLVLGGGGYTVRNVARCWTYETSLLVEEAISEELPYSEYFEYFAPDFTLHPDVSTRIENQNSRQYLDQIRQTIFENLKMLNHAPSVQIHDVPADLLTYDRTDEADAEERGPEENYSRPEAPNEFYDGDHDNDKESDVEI
Sequence of HDAC3 (Q9Y618 395-489 partner limits assumed): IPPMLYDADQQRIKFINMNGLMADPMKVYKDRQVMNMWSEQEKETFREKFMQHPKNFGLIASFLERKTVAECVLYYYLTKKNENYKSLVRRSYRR

Sequence of HDAC1 (Q13547 whole entry, canonical isoform): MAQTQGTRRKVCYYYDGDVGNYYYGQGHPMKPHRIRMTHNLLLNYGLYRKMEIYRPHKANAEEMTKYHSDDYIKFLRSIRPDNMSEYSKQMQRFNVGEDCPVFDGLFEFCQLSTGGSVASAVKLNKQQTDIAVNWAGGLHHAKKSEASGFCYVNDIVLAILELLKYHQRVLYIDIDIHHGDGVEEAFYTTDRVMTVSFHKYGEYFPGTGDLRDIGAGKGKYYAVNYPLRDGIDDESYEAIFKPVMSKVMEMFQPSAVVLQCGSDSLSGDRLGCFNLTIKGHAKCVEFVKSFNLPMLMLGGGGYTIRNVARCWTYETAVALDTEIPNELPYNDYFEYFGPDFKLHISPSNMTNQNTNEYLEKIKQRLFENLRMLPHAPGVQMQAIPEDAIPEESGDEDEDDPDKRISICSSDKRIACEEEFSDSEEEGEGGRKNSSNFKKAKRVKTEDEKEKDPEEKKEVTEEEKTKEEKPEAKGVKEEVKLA

Take `O=C(NO)c1ccc(CN(C2CC2)S(=O)(=O)c2cc(F)c(F)c(F)c2F)cc1` [Compound I-13, 4-((N-cyclopropyl-2,3,4,5-tetrafluorophenylsulfonamido)methyl)-N-hydroxybenzamide]: at HDAC1, the IC50 is greater than 1 µM.
`O=C(NO)c1ccc(CN(Cc2cccnc2)S(=O)(=O)c2cc(F)c(F)c(F)c2F)cc1` [Compound I-18, N-hydroxy-4-((2,3,4,5-tetrafluoro-N-(pyridin-3-ylmethyl)phenylsulfonamido)methyl)benzamide] had an IC50 on HDAC3 of 0.373 µM.

Source of the values: US20220169598A1, “HALOGENATED PHENYLSULFONAMIDE HYDROXAMIC ACID COMPOUNDS, COMPOSITIONS AND USES THEREOF AS SELECTIVE HDAC6 INHIBITORS” (2681603 ONTARIO INC., priority 2019, published 2022).
